Assay results: patent US8334316B2, “Substituted organosulfur compounds and methods of using thereof” (ACEA Biosciences, Inc., priority 2004, dated 2012)
Like-named read-outs stand apart in the source and are kept apart here.

Test: Acute toxicity, single intravenous injection, LD50 (Bliss method) in Kunming mice
Type: in vivo
Conditions: for Dead animals on day 8 after the single intravenous injection / Dead animals on day 9 after the single intravenous injection / Dead animals on days 10-14 after the single intravenous injection / Percentage of dead animals / Dead animals on day 1 after the single intravenous injection / Dead animals on day 2 after the single intravenous injection / Dead animals on day 3 after the single intravenous injection / Dead animals on day 4 after the single intravenous injection / Dead animals on day 5 after the single intravenous injection / Dead animals on day 6 after the single intravenous injection / Dead animals on day 7 after the single intravenous injection: 10 animals; for LD50 at 2 weeks: Kunming, mouse, in vivo, iv
Description: To evaluate the in vivo acute, intravenous toxicity of DBTS and ACEA100108 (a derivative of DBTS, see Table 33), the experiments were performed in non-tumor bearing, normal Kunming mice by monitoring the acute response of mice to a single dose of DBTS or ACEA100108 via intravenous injection (i.v.). The number of death for the treated mice was monitored and recorded. LD50 values for these compounds were calculated. Details of the study are provided below.
The experiments to test DBTS and ACEA100108 acute toxicity were performed in mice. The test mice were randomly divided into six groups (five dosing groups and one control group). Each group contained 20 Kunming strain mice, and among them, 50% were male and 50% were female. After administration of a single dose of DBTS or ACEA100108 via intravenous injection (i.v.), the acute response to DBTS or ACEA100108 compound, and the death of the treated mice during the first two weeks were monitored and recorded. The LD50 value was calculated using the Bliss method.
Materials and Method. The test chemical compound were DBTS and ACEA100108, which were dissolved into hydrogenated castor oil in the pre-warmed water bath and made as a 20 mg/ml solution. The solution was further diluted to desired experiment concentrations with the normal saline. The administration volume was 0.5 ml i.v. per mouse and the injection speed was 0.5 ml/0.5 min.
The experimental mice were Kunming strain, provided by the Experimental Animal Department, Shanghai Pharmaceutical Industry Institute. The certificate number of the facility was Animal Facility Certification Number 107. The average weight of the mice was 18-20 gram. Each test group contained 20 Kunming strain mice, and among them, 10 mice were male and 10 mice were female. […] The mice in the control group were only given the same volume of the solvent, which were diluted hydrogenated castor oil. All the testing mice were given a single intravenous injection of DBTS, ACEA100108, or the solvent that served as the control at the injection speed of 0.5 ml/0.5 min. The acute response to DBTS, ACEA100108 or the solvent immediately after the administration, as well as weight change, and the death within the first two weeks of the administration were monitored and recorded. The intravenous injection LD50 values in mice were calculated using the Bliss method.

## Fc1ccc(CSSSCc2ccc(F)cc2)cc1 [ACEA100108, Di(p-fluorobenzyl)trisulfide]
Female, 320 mg/kg
  Dead animals on day 8 after the single intravenous injection: 0
  Dead animals on day 9 after the single intravenous injection: 0
  Dead animals on days 10-14 after the single intravenous injection: 0 - - - 0
  Percentage of dead animals: 50%
Female, 320 mg/kg, Beginning 19.9
  Average animal weight, End: 24.6
Female, 400 mg/kg
  Dead animals on day 1 after the single intravenous injection: 5
  Dead animals on day 2 after the single intravenous injection: 2
  Dead animals on day 3 after the single intravenous injection: 0
  Dead animals on day 4 after the single intravenous injection: 1
  Dead animals on day 5 after the single intravenous injection: 0
  Dead animals on day 6 after the single intravenous injection: 0
  Dead animals on day 7 after the single intravenous injection: 0
  Dead animals on day 8 after the single intravenous injection: 0
  Dead animals on day 9 after the single intravenous injection: 0
  Dead animals on days 10-14 after the single intravenous injection: 0 - - - 0
  Percentage of dead animals: 80%
Female, 400 mg/kg, Beginning 19.9
  Average animal weight, End: 23.5
Female, 500 mg/kg
  Dead animals on day 1 after the single intravenous injection: 10
  Dead animals on day 2 after the single intravenous injection: 0
  Dead animals on day 3 after the single intravenous injection: 0
  Dead animals on day 4 after the single intravenous injection: 0
  Dead animals on day 5 after the single intravenous injection: 0
  Dead animals on day 6 after the single intravenous injection: 0
  Dead animals on day 7 after the single intravenous injection: 0
  Dead animals on day 8 after the single intravenous injection: 0
  Dead animals on day 9 after the single intravenous injection: 0
  Dead animals on days 10-14 after the single intravenous injection: 0 - - - 0
  Percentage of dead animals: 100%
Male, 163.8 mg/kg
  Dead animals on day 1 after the single intravenous injection: 0
  Dead animals on day 2 after the single intravenous injection: 0
  Dead animals on day 3 after the single intravenous injection: 0
  Dead animals on day 4 after the single intravenous injection: 0
  Dead animals on day 5 after the single intravenous injection: 0
  Dead animals on day 6 after the single intravenous injection: 0
  Dead animals on day 7 after the single intravenous injection: 0
  Dead animals on day 8 after the single intravenous injection: 0
  Dead animals on day 9 after the single intravenous injection: 0
  Dead animals on days 10-14 after the single intravenous injection: 0 - - - 0
  Percentage of dead animals: 0%
Male, 163.8 mg/kg, Beginning 20.4
  Average animal weight, End: 27.0
Male, 204.8 mg/kg
  Dead animals on day 1 after the single intravenous injection: 0
  Dead animals on day 2 after the single intravenous injection: 0
  Dead animals on day 3 after the single intravenous injection: 1
  Dead animals on day 4 after the single intravenous injection: 0
  Dead animals on day 5 after the single intravenous injection: 0
  Dead animals on day 6 after the single intravenous injection: 0
  Dead animals on day 7 after the single intravenous injection: 0
  Dead animals on day 8 after the single intravenous injection: 0
  Dead animals on day 9 after the single intravenous injection: 0
  Dead animals on days 10-14 after the single intravenous injection: 0 - - - 0
  Percentage of dead animals: 10%
Male, 204.8 mg/kg, Beginning 20.3
  Average animal weight, End: 26.3
Male, 256 mg/kg
  Dead animals on day 1 after the single intravenous injection: 0
  Dead animals on day 2 after the single intravenous injection: 2
  Dead animals on day 3 after the single intravenous injection: 0
  Dead animals on day 4 after the single intravenous injection: 1
  Dead animals on day 5 after the single intravenous injection: 0
  Dead animals on day 6 after the single intravenous injection: 0
  Dead animals on day 7 after the single intravenous injection: 0
  Dead animals on day 8 after the single intravenous injection: 0
  Dead animals on day 9 after the single intravenous injection: 0
  Dead animals on days 10-14 after the single intravenous injection: 0 - - - 0
  Percentage of dead animals: 30%
Male, 256 mg/kg, Beginning 20.2
  Average animal weight, End: 26.3
Male, 320 mg/kg
  Dead animals on day 1 after the single intravenous injection: 0
  Dead animals on day 2 after the single intravenous injection: 3
  Dead animals on day 3 after the single intravenous injection: 1
  Dead animals on day 4 after the single intravenous injection: 0
  Dead animals on day 5 after the single intravenous injection: 0
  Dead animals on day 6 after the single intravenous injection: 0
  Dead animals on day 7 after the single intravenous injection: 0
  Dead animals on day 8 after the single intravenous injection: 0
  Dead animals on day 9 after the single intravenous injection: 0
  Dead animals on days 10-14 after the single intravenous injection: 0 - - - 0
  Percentage of dead animals: 40%
Male, 320 mg/kg, Beginning 20.0
  Average animal weight, End: 26.7
Male, 400 mg/kg
  Dead animals on day 1 after the single intravenous injection: 3
  Dead animals on day 2 after the single intravenous injection: 3
  Dead animals on day 3 after the single intravenous injection: 0
  Dead animals on day 4 after the single intravenous injection: 1
  Dead animals on day 5 after the single intravenous injection: 0
  Dead animals on day 6 after the single intravenous injection: 0
  Dead animals on day 7 after the single intravenous injection: 0
  Dead animals on day 8 after the single intravenous injection: 0
  Dead animals on day 9 after the single intravenous injection: 0
  Dead animals on days 10-14 after the single intravenous injection: 0 - - - 0
  Percentage of dead animals: 70%
Male, 400 mg/kg, Beginning 19.9
  Average animal weight, End: 26.0
Male, 500 mg/kg
  Dead animals on day 1 after the single intravenous injection: 10
  Dead animals on day 2 after the single intravenous injection: 0
  Dead animals on day 3 after the single intravenous injection: 0
  Dead animals on day 4 after the single intravenous injection: 0
  Dead animals on day 5 after the single intravenous injection: 0
  Dead animals on day 6 after the single intravenous injection: 0
  Dead animals on day 7 after the single intravenous injection: 0
  Dead animals on day 8 after the single intravenous injection: 0
  Dead animals on day 9 after the single intravenous injection: 0
  Dead animals on days 10-14 after the single intravenous injection: 0 - - - 0
  Percentage of dead animals: 100%
Both sexes, 50% male, 50% female Kunming mice, single intravenous injection, confidence limits, read-out: LD50 (95% CL)
  LD50 at 2 weeks: 284 to 351 mg/kg
Both sexes, 50% male, 50% female Kunming mice, single intravenous injection, read-out: LD50
  LD50 at 2 weeks: 316 mg/kg
Both sexes, Kunming mice, 50% male 50% female, Bliss method, read-out: mouse single i.v. dose LD50, interval in parentheses
  LD50 at 2 weeks: 284 to 351 mg/kg
Both sexes, Kunming mice, 50% male 50% female, Bliss method, read-out: mouse single i.v. dose LD50 value
  LD50 at 2 weeks: 316 mg/kg
female, Female Kunming mice, single intravenous injection, confidence limits, read-out: LD50 (95% CL)
  LD50 at 2 weeks: 273 to 360 mg/kg
female, Female Kunming mice, single intravenous injection, read-out: LD50
  LD50 at 2 weeks: 313 mg/kg
male, Male Kunming mice, single intravenous injection, confidence limits, read-out: LD50 (95% CL)
  LD50 at 2 weeks: 272 to 375 mg/kg
male, Male Kunming mice, single intravenous injection, read-out: LD50
  LD50 at 2 weeks: 319 mg/kg
